In US9221827B2, “Antimicrobial compounds and methods of making and using the same” (Melinta Therapeutics, Inc., priority 2011, dated 2015):

tested on: Escherichia coli strain ATCC25922; test: standard microdilution assay to determine minimum inhibitory concentrations (MICs); assay type: cell-based; details: Escherichia coli strain ATCC25922, microdilution
Summary of the method: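 MICs come from CLSI-guided microdilution in 100 μl, run alongside reference-strain performance standards. Values appear as "+" or "−" relative to 16 micrograms/ml, with "N/A" marking missing data.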

| Structure (SMILES) | E. coli ATCC25922 MIC |
| --- | --- |
| C[C@H](N)CCCc1cc(SC(F)F)cc(-c2cc3cn(-c4ccc([C@H](C)NCCCNC(=N)N)cc4)c(=O)nc3[nH]2)c1 [Compound 308] | + (a “+” indicates that the compound has an MIC value of 16 micrograms/ml or less) |
| Cc1c(-c2cc3cn(-c4ccc(CNCCCNC(=N)N)cc4)c(=O)nc3[nH]2)cc(CCCCN)cc1[N+](=O)[O-] [Compound 120] | + (a “+” indicates that the compound has an MIC value of 16 micrograms/ml or less) |
| C[C@H](NCCCNC(=N)N)c1ccc(-n2cc3cc(-c4cc(CO[C@@H](C)CN)cc(SC(F)(F)F)c4)[nH]c3nc2=O)cc1 [Compound 327] | + (a “+” indicates that the compound has an MIC value of 16 micrograms/ml or less) |
| N=C(N)NCCCNCc1ccc(-n2cc3cc(-c4cc(CCC5(CN)CC5)cc(C(F)(F)F)c4)[nH]c3nc2=O)cc1 [Compound 319] | + (a “+” indicates that the compound has an MIC value of 16 micrograms/ml or less) |
| CC(N)CCCc1cc(SC(F)(F)F)c(Cl)c(-c2cc3cn(-c4ccc(C(C)NCCCNC(=N)N)cc4)c(=O)nc3[nH]2)c1 (stereo not shown) [Compound 289] | + (a “+” indicates that the compound has an MIC value of 16 micrograms/ml or less) |
| CCOc1cc(CCCCN)cc(-c2cc3cn(-c4ccc(CNCCCNC(=N)N)cc4)c(=O)nc3[nH]2)c1F [Compound 245] | + (a “+” indicates that the compound has an MIC value of 16 micrograms/ml or less) |
| N=C(N)NCCCNCc1c(F)cc(-n2cc3cc(-c4cc(CCCCN)ccc4F)[nH]c3nc2=O)cc1F [Compound 53] | + (a “+” indicates that the compound has an MIC value of 16 micrograms/ml or less) |
| N=C(N)NCCCNCc1ccc(-n2cc3cc(-c4cc(CCC5(CN)CCC5)cc(F)c4Cl)[nH]c3nc2=O)cc1 [Compound 138] | + (a “+” indicates that the compound has an MIC value of 16 micrograms/ml or less) |
| CC(C)(CN)CCc1cc(OC(F)(F)F)cc(-c2cc3cn(-c4ccc(CNCCCNC(=N)N)cc4)c(=O)nc3[nH]2)c1 [Compound 104] | + (a “+” indicates that the compound has an MIC value of 16 micrograms/ml or less) |
| N=C(N)NCCCNCc1ccc(-n2cc3cc(-c4cc(CCCCN)cc(C5CNC5)c4)[nH]c3nc2=O)cc1 [Compound 4] | + (a “+” indicates that the compound has an MIC value of 16 micrograms/ml or less) |
| N=C(N)NCCCNCc1ccc(-n2cc3cc(-c4cc(CCC5(CN)CC5)ccc4F)[nH]c3nc2=O)cc1 [Compound 136] | + (a “+” indicates that the compound has an MIC value of 16 micrograms/ml or less) |
| N=C(N)NCCCNCc1ccc(-n2cc3cc(-c4cc(CCC5(CN)CCC5)cc(OC(F)(F)F)c4)[nH]c3nc2=O)cc1 [Compound 96] | + (a “+” indicates that the compound has an MIC value of 16 micrograms/ml or less) |
| N=C(N)NCCCNCc1ccc(-n2cc3cc(-c4cc(CCCCN)cc(OC(F)(F)F)c4F)[nH]c3nc2=O)cc1 [Compound 107] | + (a “+” indicates that the compound has an MIC value of 16 micrograms/ml or less) |
| N=C(N)NCCCNCc1ccc(-n2cc3cc(-c4cc(CCCCN)cc(F)c4Cl)[nH]c3nc2=O)cc1 [Compound 37] | + (a “+” indicates that the compound has an MIC value of 16 micrograms/ml or less) |
| CC(N)CCCc1cc(-c2cc3cn(-c4ccc(CNCCCNC(=N)N)cc4)c(=O)nc3[nH]2)c(F)c(Cl)c1F (stereo not shown) [Compound 499] | + (a “+” indicates that the compound has an MIC value of 16 micrograms/ml or less) |
| COc1cc(CCCCN)cc(-c2cc3cn(-c4ccc(CNCCCNC(=N)N)cc4)c(=O)nc3[nH]2)c1 [Compound 14] | + (a “+” indicates that the compound has an MIC value of 16 micrograms/ml or less) |

| Structure (SMILES) | E. coli ATCC25922 MIC |
| --- | --- |
| CC(N)CCCc1cc(-c2cc3cn(-c4ccc(C(C)NCCCNC(=N)N)cc4)c(=O)nc3[nH]2)cc(C2CCCC2)c1 (stereo not shown) [Compound 484] | + (a “+” indicates that the compound has an MIC value of 16 micrograms/ml or less) |
| N=C(N)NCCCNCc1ccc(-n2cc3cc(-c4cc(CCCN)cc(OC(F)(F)F)c4Cl)[nH]c3nc2=O)cc1 [Compound 225] | + (a “+” indicates that the compound has an MIC value of 16 micrograms/ml or less) |
| C[C@H](NCCCNC(=N)N)c1ccc(-n2cc3cc(-c4cc(CO[C@@H](C)CN)cc(C(F)(F)F)c4)[nH]c3nc2=O)cc1 [Compound 315] | + (a “+” indicates that the compound has an MIC value of 16 micrograms/ml or less) |
| C=C(CCCN)c1cc(OC(F)(F)F)cc(-c2cc3cn(-c4ccc(CNCCCNC(=N)N)cc4)c(=O)nc3[nH]2)c1 [Compound 95] | + (a “+” indicates that the compound has an MIC value of 16 micrograms/ml or less) |
| CC(C)(N)CCCc1cc(-c2cc3cn(-c4ccc(CNCCCNC(=N)N)cc4)c(=O)nc3[nH]2)cc(C(F)(F)F)c1 [Compound 317] | + (a “+” indicates that the compound has an MIC value of 16 micrograms/ml or less) |
| CCOc1cc(CCCCN)cc(-c2cc3cn(-c4ccc(CNCCCNC(=N)N)cc4)c(=O)nc3[nH]2)c1C(F)(F)F [Compound 229] | + (a “+” indicates that the compound has an MIC value of 16 micrograms/ml or less) |
| N=C(N)NCCCNCc1ccc(-n2cc3cc(-c4cc(CCCCN)cc(C5CC5)c4)[nH]c3nc2=O)cc1 [Compound 18] | + (a “+” indicates that the compound has an MIC value of 16 micrograms/ml or less) |
| Cc1c(OC(F)F)cc(CCCCN)cc1-c1cc2cn(-c3ccc(CNCCCNC(=N)N)cc3)c(=O)nc2[nH]1 [Compound 237] | + (a “+” indicates that the compound has an MIC value of 16 micrograms/ml or less) |
| CNC(C)CCCc1cc(-c2cc3cn(-c4ccc(C(C)NCCCNC(=N)N)cc4)c(=O)nc3[nH]2)cc(C(F)(F)F)c1 (stereo not shown) [Compound 290] | + (a “+” indicates that the compound has an MIC value of 16 micrograms/ml or less) |
| N=C(N)NCCCNCc1ccc(-n2cc3cc(-c4cc(CCCCN)cc(-n5ccnn5)c4)[nH]c3nc2=O)cc1 [Compound 55] | + (a “+” indicates that the compound has an MIC value of 16 micrograms/ml or less) |
| N=C(N)NCCCNCc1ccc(-c2c[nH]c(NC(=O)Nc3c(Cl)cccc3OCCCN)nc2=O)cc1 [Compound 187] | − (a “−” indicates that the compound has an MIC value greater than 16 micrograms/ml) |
| N=C(N)NCCCNCc1ccc(-n2cc3cc(-c4c(Cl)ccc(CCCCN)c4Cl)[nH]c3nc2=O)cc1 [Compound 10] | + (a “+” indicates that the compound has an MIC value of 16 micrograms/ml or less) |
| C[C@H](NCCCNC(=N)N)c1ccc(-n2cc3cc(-c4cc(CC5CC(N)C5)cc(C(F)(F)F)c4)[nH]c3nc2=O)cc1 (stereo partly shown) [Compound 325] | + (a “+” indicates that the compound has an MIC value of 16 micrograms/ml or less) |
| CC(N)CCCc1cc(OC(F)(F)F)c(Cl)c(-c2cc3cn(-c4ccc(CNCCCNC(=N)N)cc4)c(=O)nc3[nH]2)c1 (stereo not shown) [Compound 281] | + (a “+” indicates that the compound has an MIC value of 16 micrograms/ml or less) |
| CC(CCN)Cc1cc(Cl)c(F)c(-c2cc3cn(-c4ccc(CNCCCNC(=N)N)cc4)c(=O)nc3[nH]2)c1 (stereo not shown) [Compound 132] | + (a “+” indicates that the compound has an MIC value of 16 micrograms/ml or less) |

same assay, conditions: Escherichia coli strain ATCC25922, standard microdilution assay

| Structure (SMILES) | E. coli ATCC25922 MIC |
| --- | --- |
| CC(NCCCNC(=N)N)c1ccc(-n2cc3cc(-c4cc(C5CCC(CN)CC5)cc(C(F)(F)F)c4)[nH]c3nc2=O)cc1 (mixture of isomers) [Compound 430] | + (a “+” indicates that the compound has an MIC value of 16 micrograms/ml or less) |
| CC(C)Cc1cc(CCCC(C)N)cc(-c2cc3cn(-c4ccc(C(C)NCCCNC(=N)N)cc4)c(=O)nc3[nH]2)c1 (stereo not shown) [Compound 385] | + (a “+” indicates that the compound has an MIC value of 16 micrograms/ml or less) |
| Cc1cc(CCC[C@H](C)N)cc(-c2cc3cn(-c4ccc([C@H](C)NCCCNC(=N)N)cc4)c(=O)nc3[nH]2)c1C [Compound 468] | + (a “+” indicates that the compound has an MIC value of 16 micrograms/ml or less) |
| C[C@H](N)CCCc1cc(-c2cc3cn(-c4ccc([C@H](C)NCCCNC(=N)N)cc4)c(=O)nc3[nH]2)cc(C(C)(C)C)c1 [Compound 434] | + (a “+” indicates that the compound has an MIC value of 16 micrograms/ml or less) |
| C[C@H](NCCCNC(=N)N)c1ccc(-n2cc3cc(-c4cc(CC[C@@H](C)N)cc(SC(F)(F)F)c4)[nH]c3nc2=O)cc1 [Compound 398] | + (a “+” indicates that the compound has an MIC value of 16 micrograms/ml or less) |
| CC(C)(N)COCc1cc(-c2cc3cn(-c4ccc(CNCCCNC(=N)N)cc4)c(=O)nc3[nH]2)cc(C(F)(F)F)c1 [Compound 454] | + (a “+” indicates that the compound has an MIC value of 16 micrograms/ml or less) |
| C[C@H](NCCCNC(=N)N)c1ccc(-n2cc3cc(-c4cc(C[C@H]5C[C@@H](CN)C5)cc(SC(F)(F)F)c4)[nH]c3nc2=O)cc1 [Compound 402] | + (a “+” indicates that the compound has an MIC value of 16 micrograms/ml or less) |
| C[C@H](NCCCNC(=N)N)c1ccc(-n2cc3cc(-c4cc(COCC(C)(C)N)cc(C(F)(F)F)c4)[nH]c3nc2=O)cc1 [Compound 455] | + (a “+” indicates that the compound has an MIC value of 16 micrograms/ml or less) |
| CC(N)CCCc1cc(CC(F)(F)F)cc(-c2cc3cn(-c4ccc(C(C)NCCCNC(=N)N)cc4)c(=O)nc3[nH]2)c1 (stereo not shown) [Compound 340] | + (a “+” indicates that the compound has an MIC value of 16 micrograms/ml or less) |
| Cc1c(CC(C)C)cc(CCC[C@H](C)N)cc1-c1cc2cn(-c3ccc([C@H](C)NCCCNC(=N)N)cc3)c(=O)nc2[nH]1 [Compound 453] | + (a “+” indicates that the compound has an MIC value of 16 micrograms/ml or less) |
| N=C(N)NCCCNCc1ccc(-n2cc3cc(-c4cc(CC5CCC(N)CC5)cc(Cl)c4F)[nH]c3nc2=O)cc1 (stereo not shown) [Compound 448] | + (a “+” indicates that the compound has an MIC value of 16 micrograms/ml or less) |
| CN=C(N)NCCCNC(C)c1ccc(-n2cc3cc(-c4cc(CCCC(C)N)cc(Cl)c4F)[nH]c3nc2=O)cc1 (stereo not shown) [Compound 348] | + (a “+” indicates that the compound has an MIC value of 16 micrograms/ml or less) |
